One test addresses ENPP-1 ECD (Homo sapiens (Human), UniProt P22413). Description: Inhibition of ENPP1 hydrolysis of 2′,3′-cGAMP (Assay 1). The note with it: AMP-Glo luminescence, KI from IC50 via Cheng/Prusoff.
Test [1] concerns the target ENPP1 on MDA-MB-231 cells (Homo sapiens (Human), UniProt P22413). Description: Inhibition of ENPP1 hydrolysis of AMP p-nitrophenyl ester on MDA-MB-231 cells (Assay 2). The format is cell-based. The note with it: pNP-AMP 0.25 mM, MDA-MB-231 cells, 37° C. 3 h, KI,app from IC50 via Cheng/Prusoff. The protocol: Inhibition of ENPP1 Hydrolysis of AMP p-Nitrophenyl Ester on MDA-MB-231 Cells (Assay 2)
ENPP1 is normally expressed on the human metastatic breast cancer cell line MDA-MB-231. Hydrolysis of the p-nitrophenyl ester of AMP (pNP-AMP), an isostere of ATP, is selectively catalyzed by ENPP1 in the supernatant of MDA-MB-231 cell cultures. Inhibition of the hydrolysis of pNP-AMP by MDA-MB-231 at pH 7.4 and 37° C. is a good model of physiologically relevant activity of membrane-bound ENPP1 at disease-relevant expression levels.
MDA-MB-231 cells were harvested using TypLE Express Enzyme digestion and suspended in 100 μL of Leibovitz's L-15 Medium, 20% FBS, seeding the cells in a 96-well assay plate with 4.5×10^4 cells/well. Cells were incubated at 37 C with 1% CO2 for 24 h. In a separate dilution plate, 2× of top dose of compound was prepared in phenol-red free 1640 medium without FBS and then 1:3 serial diluted in the same medium. The cell culture medium of L15 medium was aspirated carefully and cells were washed with PBS once, and 50 μL per well of test compound or DMSO blank are added to the assay plate. Substrate mix (50 μL; 0.5 mM pNP-AMP in phenol-red free 1640 media without FBS) was added for a pNP-AMP final concentration of 0.25 mM. The system was incubated at 37° C. for 3 h.

[2] abbreviates: Assay 1 KI values (class), 2,3-cGAMP 24 μM.
Where [3] appears, read: read-out: Assay 1 KI, 2,3-cGAMP 24 μM.
The mark [4] stands for this setting: read-out: Assay 2 KI,app values (class).
[5] abbreviates: read-out: Assay 1 KI values (class), 2,3-cGAMP 24 μM.

Each structure is given as a SMILES string. Like-named read-outs stand apart in the source and are kept apart here.

Sequence of ENPP1 on MDA-MB-231 cells (P22413 whole entry): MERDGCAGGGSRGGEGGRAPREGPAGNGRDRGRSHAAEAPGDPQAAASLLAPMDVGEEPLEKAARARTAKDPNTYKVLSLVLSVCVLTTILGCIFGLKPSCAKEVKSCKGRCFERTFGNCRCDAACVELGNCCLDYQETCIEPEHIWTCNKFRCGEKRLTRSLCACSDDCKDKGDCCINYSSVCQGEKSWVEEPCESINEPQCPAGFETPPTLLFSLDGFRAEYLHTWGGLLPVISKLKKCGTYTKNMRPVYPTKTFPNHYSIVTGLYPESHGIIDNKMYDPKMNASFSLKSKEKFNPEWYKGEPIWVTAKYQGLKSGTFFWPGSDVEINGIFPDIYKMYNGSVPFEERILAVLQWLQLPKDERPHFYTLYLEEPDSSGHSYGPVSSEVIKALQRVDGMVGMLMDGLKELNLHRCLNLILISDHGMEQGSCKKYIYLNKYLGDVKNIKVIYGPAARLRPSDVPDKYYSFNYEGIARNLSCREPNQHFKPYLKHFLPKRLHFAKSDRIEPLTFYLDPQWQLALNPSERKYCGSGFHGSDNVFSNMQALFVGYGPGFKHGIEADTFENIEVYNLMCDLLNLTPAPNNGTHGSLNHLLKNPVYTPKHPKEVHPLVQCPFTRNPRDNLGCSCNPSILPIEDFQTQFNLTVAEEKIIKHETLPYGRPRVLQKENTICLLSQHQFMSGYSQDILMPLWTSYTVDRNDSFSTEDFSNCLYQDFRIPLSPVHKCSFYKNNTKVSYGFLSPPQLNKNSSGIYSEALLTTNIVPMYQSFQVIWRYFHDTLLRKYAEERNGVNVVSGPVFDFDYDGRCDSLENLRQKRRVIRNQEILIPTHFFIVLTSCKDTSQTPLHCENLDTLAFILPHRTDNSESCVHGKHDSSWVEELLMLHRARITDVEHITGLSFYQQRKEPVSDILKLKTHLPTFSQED
Sequence of ENPP-1 ECD (P22413 98-925): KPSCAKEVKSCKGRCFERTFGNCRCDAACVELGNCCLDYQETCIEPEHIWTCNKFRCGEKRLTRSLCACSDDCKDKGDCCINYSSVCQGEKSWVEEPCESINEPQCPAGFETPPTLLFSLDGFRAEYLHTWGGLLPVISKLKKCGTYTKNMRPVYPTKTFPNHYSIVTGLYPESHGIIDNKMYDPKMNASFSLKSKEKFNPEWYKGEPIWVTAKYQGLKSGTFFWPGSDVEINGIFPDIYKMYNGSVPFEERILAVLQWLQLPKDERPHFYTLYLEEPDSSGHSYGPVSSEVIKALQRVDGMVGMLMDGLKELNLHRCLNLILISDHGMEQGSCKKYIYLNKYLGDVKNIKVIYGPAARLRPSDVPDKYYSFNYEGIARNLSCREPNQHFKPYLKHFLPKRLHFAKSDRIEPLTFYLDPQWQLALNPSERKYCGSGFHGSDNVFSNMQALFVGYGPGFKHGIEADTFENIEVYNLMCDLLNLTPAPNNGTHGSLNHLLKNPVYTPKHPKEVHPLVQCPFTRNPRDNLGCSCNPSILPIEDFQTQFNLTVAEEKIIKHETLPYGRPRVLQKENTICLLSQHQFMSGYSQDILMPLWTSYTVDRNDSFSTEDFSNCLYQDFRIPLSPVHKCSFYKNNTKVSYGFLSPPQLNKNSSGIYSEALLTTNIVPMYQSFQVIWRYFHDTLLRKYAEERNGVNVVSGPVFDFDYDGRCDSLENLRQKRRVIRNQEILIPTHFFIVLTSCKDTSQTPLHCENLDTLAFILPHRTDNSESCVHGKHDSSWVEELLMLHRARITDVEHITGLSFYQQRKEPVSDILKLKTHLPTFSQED
Experimental for ENPP-1 ECD: Test compounds were plated in a 3× dilution scheme in a 384 well plate.

As for `[2H]C([2H])([2H])N(c1c(Cc2ccc(S(C)(=N)=O)cc2)c(C)nc2ncnn12)C([2H])([2H])[2H]` (stereo not shown) [Compound 49, [4-[{7-[di(^2H3)methylamino]-5-methyl-[1,2,4]triazolo[1,5-a]pyrimidin-6-yl}methyl)phenyl](imino)methyl-λ^6-sulfanone], the Ki on ENPP-1 ECD (setting [2]) was < 3 nM; on ENPP-1 ECD (setting [3]) it was 0.0621 nM; in test [1] (read-out: Assay 2 KI, app) it was 4.7 nM; in test [1] (setting [4]) it was < 10 nM.

On to `CCc1nc2ncnn2c(N2CCCC2)c1Cc1ccc(S(C)(=N)=O)cc1` (stereo not shown) [Compound 50, (4-{[5-ethyl-7-(pyrrolidin-1-yl)-[1,2,4]triazolo[1,5-a]pyrimidin-6-yl]methyl}phenyl)(imino)methyl-λ^6-sulfanone], for which the Ki is < 3 nM at ENPP-1 ECD (setting [2]); 15.7 nM in test [1] (read-out: Assay 2 KI, app); > 10 nM in test [1] (setting [4]).

As to `CN(C)c1c(Cc2ccc(S(C)(=N)=O)cc2)c(C2CC2)nc2ncnn12` (stereo not shown) [Compound 53, (4-{[5-cyclopropyl-7-(dimethylamino)-[1,2,4]triazolo[1,5-a]pyrimidin-6-yl]methyl}phenyl)(imino)methyl-λ^6-sulfanone], the Ki was < 3 nM at ENPP-1 ECD (setting [2]); 1.11 nM in test [1] (read-out: Assay 2 KI, app); < 10 nM in test [1] (setting [4]).

For `CS(=N)(=O)c1ccc(Cc2cnc3ncnn3c2N2CCCC2)cc1` (stereo not shown) [Compound 54], the Ki at ENPP-1 ECD (setting [5]) is < 3 nM; at ENPP-1 ECD (setting [3]), 1.71 nM; in test [1] (read-out: Assay 2 KI, app), 74.7 nM; in test [1] (setting [4]), > 10 nM.

Take `Cc1nc2ncnn2c(N(C)C)c1Cc1ccc(S(=N)(=O)Cc2ccccc2)cc1` (stereo not shown) [Compound 55, benzyl(4-((7-(dimethylamino)-5-methyl-[1,2,4]triazolo[1,5-a]pyrimidin-6-yl)methyl)phenyl)(imino)-λ^6-sulfanone]: the Ki at ENPP-1 ECD (setting [2]) was < 3 nM; in test [1] (read-out: Assay 2 KI, app) it was 1.65 nM.

`CCS(=N)(=O)c1ccc(Cc2c(C)nc3ncnn3c2N(C)C)cc1` (stereo not shown) [Compound 57, (4-{[7-(dimethylamino)-5-methyl-[1,2,4]triazolo[1,5-a]pyrimidin-6-yl]methyl}phenyl)(ethyl)imino-λ^6-sulfanone]: the Ki on ENPP-1 ECD (setting [2]) was < 3 nM; in test [1] (read-out: Assay 2 KI, app), 9.59 nM; in test [1] (setting [4]) it was < 10 nM.

Take `Cc1nc2ncnn2c(N(C)C)c1Cc1ccc(S(=N)(=O)CCO)cc1` (stereo not shown) [Compound 59, (4-{[7-(dimethylamino)-5-methyl-[1,2,4]triazolo[1,5-a]pyrimidin-6-yl]methyl}phenyl)(2-hydroxyethyl)imino-λ^6-sulfanone]: the Ki on ENPP-1 ECD (setting [2]) is < 3 nM; in test [1] (read-out: Assay 2 KI, app) it was 11.5 nM; in test [1] (setting [4]) it was > 10 nM.

Turning to `COCCS(=N)(=O)c1ccc(Cc2c(C)nc3ncnn3c2N(C)C)cc1` (stereo not shown) [Compound 60, (4-{[7-(dimethylamino)-5-methyl-[1,2,4]triazolo[1,5-a]pyrimidin-6-yl]methyl}phenyl)(imino)(2-methoxyethyl)-λ^6-sulfanone], the Ki was < 3 nM at ENPP-1 ECD (setting [2]); 0.0862 nM on ENPP-1 ECD (setting [3]); 6.25 nM in test [1] (read-out: Assay 2 KI, app); < 10 nM in test [1] (setting [4]).

`CC(=O)NCCS(=N)(=O)c1ccc(Cc2c(C)nc3ncnn3c2N(C)C)cc1` (stereo not shown) [Compound 64, N-{2-[(4-{[7-(dimethylamino)-5-methyl-[1,2,4]triazolo[1,5-a]pyrimidin-6-yl]methyl}phenyl)(imino)oxo-λ^6-sulfanyl]ethyl}acetamide]: the Ki at ENPP-1 ECD (setting [2]) was < 3 nM; at ENPP-1 ECD (setting [3]), 0.0667 nM; in test [1] (read-out: Assay 2 KI, app), 4.41 nM; in test [1] (setting [4]) it was < 10 nM.

For `Cc1nc2ncnn2c(N(C)C)c1Cc1ccc(S(=N)(=O)CCC(=O)O)cc1` (stereo not shown) [Compound 72, 3-[(4-{[7-(dimethylamino)-5-methyl-[1,2,4]triazolo[1,5-a]pyrimidin-6-yl]methyl}phenyl)(imino)oxo-λ^6-sulfanyl]propanoic acid], the Ki at ENPP-1 ECD (setting [2]) was < 3 nM; on ENPP-1 ECD (setting [3]), 0.0285 nM; in test [1] (read-out: Assay 2 KI, app) it was 0.769 nM; in test [1] (setting [4]), < 10 nM.

In the case of `Cc1nc2ncnn2c(N(C)C)c1Cc1ccc([S@@](=N)(=O)CCC(=O)O)cc1` [Compound 72a], the Ki on ENPP-1 ECD (setting [3]) stood at 0.00881 nM; in test [1] (read-out: Assay 2 KI, app), 0.505 nM.

With `Cc1nc2ncnn2c(N(C)C)c1Cc1ccc(S(=N)(=O)CCN)cc1` (stereo not shown) [Compound 73, (2-aminoethyl)(4-{[7-(dimethylamino)-5-methyl-[1,2,4]triazolo[1,5-a]pyrimidin-6-yl]methyl}phenyl)imino-λ^6-sulfanone], the Ki was < 3 nM at ENPP-1 ECD (setting [2]); 7.7 nM in test [1] (read-out: Assay 2 KI, app); < 10 nM in test [1] (setting [4]).

Turning to `CN(C)c1c(Cc2ccc(S(C)(=N)=O)cc2)c(Cl)nc2ncnn12` (stereo not shown) [Compound 74, (4-{[5-chloro-7-(dimethylamino)-[1,2,4]triazolo[1,5-a]pyrimidin-6-yl]methyl}phenyl)(imino)methyl-λ^6-sulfanone], the Ki at ENPP-1 ECD (setting [2]) is < 3 nM; in test [1] (read-out: Assay 2 KI, app), 7.13 nM; in test [1] (setting [4]), < 10 nM.

Consider `CN(C)c1c(Cc2ccc([S@@](C)(=N)=O)cc2)c(Cl)nc2ncnn12` [Compound 74a], for which the Ki on ENPP-1 ECD (setting [5]) is < 3 nM; on ENPP-1 ECD (setting [3]), 0.0523 nM; in test [1] (read-out: Assay 2 KI, app), 1.34 nM; in test [1] (setting [4]) it was < 10 nM.

On to `Cc1cc2ncnn2c(N2CCCC2)c1Cc1ccc(S(C)(=N)=O)cc1` (stereo not shown) [Compound 75, imino(methyl)(4-{[7-methyl-5-(pyrrolidin-1-yl)-[1,2,4]triazolo[1,5-a]pyridin-6-yl]methyl}phenyl)-λ^6-sulfanone], for which the Ki on ENPP-1 ECD (setting [2]) was < 3 nM; in test [1] (read-out: Assay 2 KI, app) it was 36.7 nM; in test [1] (setting [4]), > 10 nM.

For `Cc1cc2ncnn2c(N2CCCCC2)c1Cc1ccc(S(C)(=N)=O)cc1` (stereo not shown) [Compound 76, imino(methyl)(4-{[7-methyl-5-(piperidin-1-yl)-[1,2,4]triazolo[1,5-a]pyridin-6-yl]methyl}phenyl)-λ^6-sulfanone], the Ki on ENPP-1 ECD (setting [2]) is < 3 nM; in test [1] (read-out: Assay 2 KI, app), 38.6 nM; in test [1] (setting [4]) it was > 10 nM.

Consider `CS(=N)(=O)c1ccc(Cc2c(Cl)nc3ncnn3c2N2CCCC2)cc1` (stereo not shown) [Compound 78, (4-{[5-chloro-7-(pyrrolidin-1-yl)-[1,2,4]triazolo[1,5-a]pyrimidin-6-yl]methyl}phenyl)(imino)methyl-λ^6-sulfanone], for which the Ki on ENPP-1 ECD (setting [2]) was < 3 nM; in test [1] (read-out: Assay 2 KI, app) it was 24.1 nM; in test [1] (setting [4]) it was > 10 nM.

In the case of `CN(C)c1c(Cc2ccc(S(C)(=N)=O)cc2)c(C#N)nc2ncnn12` (stereo not shown) [Compound 79, 7-(dimethylamino)-6-({4-[imino(methyl)oxo-λ^6-sulfanyl]phenyl}methyl)-[1,2,4]triazolo[1,5-a]pyrimidine-5-carbonitrile], the Ki at ENPP-1 ECD (setting [2]) was < 3 nM; at ENPP-1 ECD (setting [3]), 2.86 nM; in test [1] (read-out: Assay 2 KI, app), 74.4 nM; in test [1] (setting [4]), > 10 nM.

For the compound `Cc1c(Cc2ccc(S(C)(=N)=O)cc2)c(N(C)C)n2ccnc2c1C#N` (stereo not shown) [Compound 80, 5-(dimethylamino)-6-({4-[imino(methyl)oxo-λ^6-sulfanyl]phenyl}methyl)-7-methylimidazo[1,2-a]pyridine-8-carbonitrile], the Ki is < 3 nM on ENPP-1 ECD (setting [2]); 0.0443 nM at ENPP-1 ECD (setting [3]); 2.54 nM in test [1] (read-out: Assay 2 KI, app); < 10 nM in test [1] (setting [4]).

On to `Cc1c(Cc2ccc([S@@](C)(=N)=O)cc2)c(N(C)C)n2ccnc2c1C#N` [Compound 80a], for which the Ki on ENPP-1 ECD (setting [5]) is < 3 nM; on ENPP-1 ECD (setting [3]), 0.016 nM; in test [1] (read-out: Assay 2 KI, app), 0.589 nM; in test [1] (setting [4]), < 10 nM.

Turning to `Cc1nc2ncnn2c(N2CCCC2)c1Cc1ccc(B(O)O)cc1` [Compound 81, (4-{[5-methyl-7-(pyrrolidin-1-yl)-[1,2,4]triazolo[1,5-a]pyrimidin-6-yl]methyl}phenyl)boronic acid], the Ki at ENPP-1 ECD (setting [2]) is < 3 nM; on ENPP-1 ECD (setting [3]), 0.817 nM; in test [1] (read-out: Assay 2 KI, app), 13.5 nM; in test [1] (setting [4]), > 10 nM.

Take `Cc1nc2ncnn2c(N2CCCC2)c1Cc1ccc(C(=O)NO)cc1` [Compound 82, N-hydroxy-4-{[5-methyl-7-(pyrrolidin-1-yl)-[1,2,4]triazolo[1,5-a]pyrimidin-6-yl]methyl}benzamide]: the Ki was < 3 nM on ENPP-1 ECD (setting [2]); 1.16 nM at ENPP-1 ECD (setting [3]); 69.9 nM in test [1] (read-out: Assay 2 KI, app); > 10 nM in test [1] (setting [4]).

Consider `Cc1c(Cc2ccc(S(C)(=N)=O)cc2)c(N(C)C)n2ncnc2c1C#N` (stereo not shown) [Compound 85, 5-(dimethylamino)-6-({4-[imino(methyl)oxo-λ^6-sulfanyl]phenyl}methyl)-7-methyl-[1,2,4]triazolo[1,5-a]pyridine-8-carbonitrile], for which the Ki at ENPP-1 ECD (setting [3]) is 0.0287 nM; in test [1] (read-out: Assay 2 KI, app) it was 0.724 nM.

In the case of `Cc1cc2ncnn2c(N(C)C)c1Cc1ccc(S(=N)(=O)CCC(=O)O)cc1` (stereo not shown) [Compound 87, 3-[(4-{[5-(dimethylamino)-7-methyl-[1,2,4]triazolo[1,5-a]pyridin-6-yl]methyl}phenyl)(imino)oxo-λ^6-sulfanyl]propanoic acid], the Ki at ENPP-1 ECD (setting [3]) came to 0.0184 nM; in test [1] (read-out: Assay 2 KI, app), 0.447 nM.

Values taken from US20240376113A1 (Volastra Therapeutics, Inc., priority 2020, published 2024).
